Eleven molecules from ChEMBL document CHEMBL1201862, “PubChem BioAssay data set” (2004) can be followed below.

Among the test systems are EKVX; M14; COLO 205; NCI-H460; OVCAR-4; PC-3; SF-268; SK-OV-3; RXF 393; MDA-MB-231; SK-MEL-5; NCI-H226; U-251; SNB-75; CAKI-1; TK-10; SW-620; UACC-62; SNB-19; SR.
Assay in all cases: NCI-60 cell line screen, 48 h

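Five concentrations, 48 hours, 96-well plates. Abbreviation: GI50, concentration required for 50% inhibition of growth.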 Active and inactive are the calls of the source. Cut-off read from the data, not from the text of the source: active = GI50 up to about 1.1 µM and inactive = higher.

Regarding `COc1ccc(-c2c(C#N)c(-c3ccc(C)cc3)n(NS(=O)(=O)c3ccc(C)cc3)c(=O)c2C#N)cc1`, the GI50 is 53.5 µM (inactive) with EKVX; 55.2 µM (inactive) with M14; 90.2 µM (inactive) in the assay on COLO 205; 54.3 µM (inactive) with NCI-H460; 31.3 µM (inactive) in the assay on OVCAR-4; 36.6 µM (inactive) in the assay on PC-3. Besides, the GI50 in the assay on SF-268 was 56.6 µM (inactive); in the assay on SK-OV-3 it was 70.5 µM (inactive); with RXF 393, 38.8 µM (inactive); with MDA-MB-231, > 100 µM (inactive); in the assay on SK-MEL-5, 23.5 µM (inactive); with NCI-H226, > 100 µM (inactive). In addition, the GI50 is 53.6 µM (inactive) in the assay on U-251; 31.2 µM (inactive) in the assay on SNB-75; 63.7 µM (inactive) in the assay on CAKI-1; 87.3 µM (inactive) with TK-10; 49.5 µM (inactive) in the assay with SW-620; 43.6 µM (inactive) with UACC-62. The GI50 in the assay on SNB-19 was 47.4 µM (inactive).
For `CCCC(=O)Oc1cc(OC(=O)CCC)c2c(C)cc(=O)oc2c1`, the GI50 with EKVX is > 100 µM (inactive); with M14 it was > 100 µM (inactive); in the assay with COLO 205, 40 µM (inactive); with OVCAR-4 it was > 100 µM (inactive); with PC-3 it was 76.2 µM (inactive); with SF-268 it was > 100 µM (inactive). Besides, the GI50 in the assay with SK-OV-3 was > 100 µM (inactive); in the assay with MDA-MB-231 it was > 100 µM (inactive); with SK-MEL-5, 67.9 µM (inactive); in the assay on NCI-H226 it was 87.7 µM (inactive); in the assay on U-251, 78.3 µM (inactive); with SR it was 18.5 µM (inactive). Besides, the GI50 is 52.4 µM (inactive) in the assay on SNB-75; > 100 µM (inactive) in the assay with TK-10; 49.9 µM (inactive) in the assay with SW-620; 66.1 µM (inactive) in the assay with UACC-62; > 100 µM (inactive) in the assay with SNB-19.
As for `S=C(N/N=C(/c1ccccc1)c1ccccn1)N1CCCCCC1`, the GI50 is < 0.0329 µM (active) in the assay with EKVX; 0.001 µM (active) in the assay with M14; < 0.018 µM (active) in the assay on COLO 205; < 0.0283 µM (active) in the assay with NCI-H460; 0.127 µM (active) in the assay on OVCAR-4; < 0.0198 µM (active) in the assay with PC-3. The GI50 is < 0.0391 µM (active) in the assay with SF-268; < 0.027 µM (active) in the assay on SK-OV-3; 0.67 µM (active) in the assay on RXF 393; 0.01 µM (active) in the assay with MDA-MB-231; < 0.0228 µM (active) with SK-MEL-5; 0.0379 µM (active) with NCI-H226. For the same molecule, the GI50 in the assay with U-251 was < 0.0252 µM (active); in the assay on SNB-75 it was 0.036 µM (active); in the assay on CAKI-1, 0.0818 µM (active); in the assay with TK-10, 0.112 µM (active); in the assay with SW-620, < 0.0214 µM (active); with UACC-62, 0.0476 µM (active). In addition, in the assay on SNB-19, the GI50 was 0.308 µM (active).
Consider `CC(=O)OCC1OC(O[C@@H]2C[C@H]3C(C)(C)[C@@H](OC(C)=O)CC[C@]3(C)[C@H]3CC[C@]45C[C@]4(CC[C@H]5[C@@H](C)C[C@@H](O)[C@H](O)C(C)(C)F)[C@@]32C)C(O)C(O)C1O` (stereo partly drawn), for which the GI50 in the assay on EKVX was 1.61 µM (inactive); in the assay with M14 it was 1.76 µM (inactive); in the assay on COLO 205, 1.78 µM (inactive); with NCI-H460, 16.9 µM (inactive); with OVCAR-4, 65.9 µM (inactive); in the assay on PC-3 it was 10.6 µM (inactive). In addition, the GI50 was 1.47 µM (inactive) with SF-268; 42.2 µM (inactive) in the assay on SK-OV-3; 57.5 µM (inactive) with RXF 393; 25.8 µM (inactive) in the assay on MDA-MB-231; 1.72 µM (inactive) in the assay on SK-MEL-5; 18.2 µM (inactive) in the assay with U-251. For the same molecule, the GI50 in the assay on CAKI-1 is 63.4 µM (inactive); in the assay on TK-10, 57.9 µM (inactive); in the assay with SW-620, 1.85 µM (inactive); in the assay with UACC-62 it was 23.9 µM (inactive); in the assay on SNB-19 it was 1.68 µM (inactive).
For `COc1ccc(C(=O)N2CCc3c([nH]c4ccccc34)C2C(=O)O)o1` (stereo not drawn), the GI50 in the assay with EKVX, with M14, in the assay with COLO 205, with OVCAR-4, in the assay on PC-3 and with SF-268 was > 10 µM (inactive) throughout. For the same molecule, the GI50 in the assay with SK-OV-3, in the assay on MDA-MB-231, with SK-MEL-5, in the assay on U-251, in the assay on SR and in the assay on SNB-75 was > 10 µM (inactive) in each case. For the same molecule, the GI50 in the assay on CAKI-1, with TK-10, in the assay with SW-620, in the assay on UACC-62 and in the assay on SNB-19 was > 10 µM (inactive) throughout.
In the case of `NC(=O)CC(N)C(=O)NC(Cc1ccccc1)C(=O)NC(Cc1ccccc1)NC(=O)C(Cc1c[nH]c2ccccc12)C(=O)O` (stereo not drawn), the GI50 in the assay on EKVX, in the assay with M14, in the assay with COLO 205, in the assay with NCI-H460, with OVCAR-4 and in the assay on PC-3 was > 100 µM (inactive) each time. The GI50 in the assay on SF-268 is > 100 µM (inactive); with SK-OV-3, > 100 µM (inactive); in the assay with RXF 393 it was > 100 µM (inactive); with MDA-MB-231, > 100 µM (inactive); in the assay with SK-MEL-5 it was 49.4 µM (inactive); with NCI-H226, > 100 µM (inactive). The GI50 in the assay on U-251 is > 100 µM (inactive); in the assay with SNB-75, 71.8 µM (inactive); in the assay on CAKI-1, > 100 µM (inactive); in the assay with TK-10 it was > 100 µM (inactive); in the assay on SW-620, > 100 µM (inactive); with UACC-62, > 100 µM (inactive). Besides, in the assay on SNB-19, the GI50 was > 100 µM (inactive).
Turning to `Nc1ccc(S(=O)(=O)c2ccc(NC(=O)c3cccnc3)cc2)cc1`, the GI50 in the assay with EKVX is 64.9 µM (inactive); in the assay with M14, > 100 µM (inactive); in the assay on COLO 205, > 100 µM (inactive); with NCI-H460, > 100 µM (inactive); with OVCAR-4, 62.4 µM (inactive); in the assay with PC-3, 75 µM (inactive). Besides, the GI50 is > 100 µM (inactive) in the assay on SF-268; > 100 µM (inactive) in the assay with SK-OV-3; 56.4 µM (inactive) with RXF 393; > 100 µM (inactive) in the assay on MDA-MB-231; 42.4 µM (inactive) with SK-MEL-5; > 100 µM (inactive) with NCI-H226. Also, the GI50 is > 100 µM (inactive) in the assay with U-251; 30.8 µM (inactive) in the assay on SNB-75; > 100 µM (inactive) in the assay on CAKI-1; > 100 µM (inactive) in the assay on TK-10; > 100 µM (inactive) in the assay with SW-620; > 100 µM (inactive) in the assay on UACC-62. The GI50 in the assay with SNB-19 was > 100 µM (inactive).
As to `Nc1ncnc2c1nnn2C1C=CC(CP(=O)(O)O)C1` (stereo not drawn), the GI50 with EKVX, in the assay with M14, in the assay on COLO 205, in the assay with NCI-H460, in the assay on OVCAR-4 and in the assay on PC-3 was > 100 µM (inactive) each time. For the same molecule, the GI50 in the assay with SF-268, in the assay with SK-OV-3, in the assay with RXF 393, in the assay on MDA-MB-231, in the assay on SK-MEL-5 and in the assay on NCI-H226 was > 100 µM (inactive) throughout. Moreover, the GI50 with U-251, in the assay on TK-10, with SW-620, in the assay on UACC-62 and in the assay with SNB-19 was > 100 µM (inactive) throughout.
For `COc1ccc(CCCNC(=O)Cc2ccccc2CO)cc1OC`, the GI50 in the assay with EKVX, in the assay with M14, in the assay on COLO 205, in the assay with NCI-H460, with OVCAR-4 and in the assay with PC-3 was > 100 µM (inactive) throughout. Besides, the GI50 with MDA-MB-231, in the assay on SK-MEL-5, in the assay on NCI-H226, with U-251, in the assay on SR and in the assay on SNB-75 was > 100 µM (inactive) throughout. Besides, the GI50 with CAKI-1, with TK-10, in the assay on SW-620, in the assay on UACC-62 and with SNB-19 was > 100 µM (inactive) throughout.
As for `CCOC(=O)[C@@]12CCC(C1=O)[C@](C)(O)C[C@@H]2c1ccccc1`, the GI50 in the assay on EKVX is 57.1 µM (inactive); with M14 it was 27.7 µM (inactive); with COLO 205, 44.4 µM (inactive); in the assay on NCI-H460 it was 39.2 µM (inactive); with OVCAR-4, > 100 µM (inactive); in the assay on PC-3 it was 34 µM (inactive). Further, the GI50 with SF-268 was 36.2 µM (inactive); in the assay on SK-OV-3, 29.1 µM (inactive); in the assay on RXF 393, 29.3 µM (inactive); with MDA-MB-231, 36.5 µM (inactive); with SK-MEL-5, 35.2 µM (inactive); in the assay on NCI-H226, > 100 µM (inactive). The GI50 was 33.7 µM (inactive) with U-251; 33 µM (inactive) in the assay with SNB-75; 39.2 µM (inactive) with CAKI-1; > 100 µM (inactive) in the assay with TK-10; > 100 µM (inactive) in the assay with SW-620; 29.7 µM (inactive) in the assay with UACC-62. The GI50 in the assay with SNB-19 was 43.7 µM (inactive).
`Cc1cccc(C)c1NC(=O)/C(Cc1nc2ccc([N+](=O)[O-])cc2nc1O)=N\NC(N)=O`: the GI50 in the assay with EKVX is 64.6 µM (inactive); in the assay on M14, > 100 µM (inactive); in the assay with COLO 205, 38.9 µM (inactive); in the assay with NCI-H460, > 100 µM (inactive); in the assay with OVCAR-4, 90.6 µM (inactive); with PC-3, 66.5 µM (inactive). For the same molecule, the GI50 with SF-268, in the assay on SK-OV-3, with MDA-MB-231, in the assay with SK-MEL-5, in the assay on NCI-H226 and in the assay on U-251 was > 100 µM (inactive) in each case. In addition, the GI50 in the assay with SNB-75 was > 100 µM (inactive); in the assay with CAKI-1, > 100 µM (inactive); in the assay with TK-10, > 100 µM (inactive); with SW-620, 52.5 µM (inactive); in the assay with UACC-62, 80.9 µM (inactive); with SNB-19, > 100 µM (inactive).
